By IC50 is commonly meant the concentration that inhibits the measured activity by half. Read a high IC50 as lower potency. Broadly, the EC50 is the midpoint of the concentration-response curve.

14 compounds from paper PMC8299157 (Antiviral Research, 2021) can be followed below.

Where a name gives a salt, the structure may show the parent alone. Read-outs that look alike come from different tables or passages of the source. Where only a bound is given, the exact number is not on record here.

In one data set the target is human N7-MTase RNMT-RAM (Homo sapiens, UniProt O43148). In words: Py-FLINT N7-MTase inhibition assay. The note with it: for IC50 Py-FLINT (RNMT-RAM): 2 μM Py-FLINT probe, 20 μM SAM, 20 nM RNMT-RAM. Type of data set: biochemical.
The next data set in a line: in vitro. The note with it: human.
The subject of another data set is SARS-CoV-2. In kind it is cell-based. The note with it: for EC50: read-out: EC50 Antiviral assay.
For a further data set, the target named is nsp14 (Severe acute respiratory syndrome coronavirus 2, UniProt P0DTD1). Type of data set: binding, SARS-CoV-2. The note with it: 100 μM inhibitor; for Inhibitor type (targeted binding site): from both FA competition assays.
The target in data set [1] is SARS-CoV-2 nsp14 N7-MTase (Severe acute respiratory syndrome coronavirus 2, UniProt P0DTD1). In words: Py-FLINT N7-MTase inhibition assay. Type of data set: biochemical.
For another data set, the target named is nsp14 N7-MTase (Severe acute respiratory syndrome coronavirus 2, UniProt P0DTD1). In words: RP HPLC inhibition study of Gp3A N7-methylation. Type of data set: biochemical, SARS-CoV-2.

Chain of human N7-MTase RNMT-RAM (O43148 whole entry): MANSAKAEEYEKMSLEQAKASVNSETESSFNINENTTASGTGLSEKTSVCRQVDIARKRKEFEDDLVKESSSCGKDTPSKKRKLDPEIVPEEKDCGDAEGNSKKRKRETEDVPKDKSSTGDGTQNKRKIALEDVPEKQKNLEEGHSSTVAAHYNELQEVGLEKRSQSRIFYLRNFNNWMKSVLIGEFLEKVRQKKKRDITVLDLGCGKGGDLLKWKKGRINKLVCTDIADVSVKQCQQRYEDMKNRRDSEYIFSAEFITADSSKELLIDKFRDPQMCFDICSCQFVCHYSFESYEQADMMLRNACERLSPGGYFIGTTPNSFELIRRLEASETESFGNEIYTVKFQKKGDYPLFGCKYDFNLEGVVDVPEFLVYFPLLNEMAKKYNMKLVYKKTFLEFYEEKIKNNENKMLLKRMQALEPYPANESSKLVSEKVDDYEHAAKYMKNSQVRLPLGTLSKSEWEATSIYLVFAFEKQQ
Chain of human N7-MTase RNMT-RAM (Q9BTL3 whole entry partner): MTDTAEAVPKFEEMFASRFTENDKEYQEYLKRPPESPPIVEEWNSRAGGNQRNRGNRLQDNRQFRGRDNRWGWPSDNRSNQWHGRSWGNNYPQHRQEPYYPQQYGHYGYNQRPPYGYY

The compound `O=c1c2ccccc2[se]n1-c1ccccc1` [FI6, Ebselen] returned an IC50 against human N7-MTase RNMT-RAM of 23.8 ± 1.3 µM.
As to `Cc1cc(-c2ccc(/N=N/c3ccc4c(S(=O)(=O)O)cc(S(=O)(=O)O)c(N)c4c3O)c(C)c2)ccc1/N=N/c1ccc2c(S(=O)(=O)O)cc(S(=O)(=O)O)c(N)c2c1O` [FI7, Evans Blue], at human N7-MTase RNMT-RAM, the midpoint of inhibition, the IC50, lay at 0.33 ± 0.05 µM. This compound yielded a CC50 in “in vitro” of 35.6 ± 1 µM. The “CC50/EC50 Selectivity index” value in the data set with SARS-CoV-2 (Huh 7 cells) is 1.15 ± 0.04. Moreover, the EC50 with SARS-CoV-2 amounted to 31 ± 0.9 µM.
As to `CC(=O)OC[C@H]1O[C@@H]([S-])[C@H](OC(C)=O)[C@@H](OC(C)=O)[C@@H]1OC(C)=O.CCP(CC)CC.[Au+]` [FI9, Auranofin], the “IC50 Py-FLINT (RNMT-RAM)” value against human N7-MTase RNMT-RAM is “no human N7-MTase inhibition”. The EC50 in the data set on SARS-CoV-2 is above 100 µM. In addition, the “Inhibitor type (targeted binding site)” value on nsp14 was “bound by nsp14 within the nucleotide binding pocket”.
In turn, `Oc1c(Cl)cc(Cl)c(Cl)c1Cc1c(O)c(Cl)cc(Cl)c1Cl` [FI11, Hexachlorophene] gave an IC50 against human N7-MTase RNMT-RAM of 8 ± 3.2 µM. Moreover, the “CC50/EC50 Selectivity index” value in the data set on SARS-CoV-2 is recorded as “not active”. In addition, the “Inhibitor type (targeted binding site)” value on nsp14 is reported as “bound by nsp14 within the nucleotide binding pocket”.
The compound `NCCOc1cc(C(=O)Nc2cc(OCCN)c3ccccc3n2)nc(C(=O)Nc2cc(OCCN)c3ccccc3n2)c1` [LI3, Pyridostatin xCF3COO^-] came in with an IC50 on human N7-MTase RNMT-RAM of 3.1 µM. In addition, in data set [1] (compounds selected from LOPAC1280 library (Table S3)), the “p (Hill slope)” value came to 18.1. Also, the CC50 in the data set “in vitro” turned out to be 59.3 ± 21.6 µM. In addition, at nsp14 N7-MTase, the “inhibition of m7Gp3A formation (RP HPLC)” value is reported as “lower potency”. For the same compound, the “CC50/EC50 Selectivity index” value in the data set on SARS-CoV-2 (Huh 7 cells) came out at 16.6 ± 6.1. Besides, the EC50 in the data set on SARS-CoV-2 is 3.58 ± 0.16 µM; in the data set on SARS-CoV-2 (listed as Pyridostatin), below 50 µM. On nsp14, the “FA values in both binding assays and control sample” value is listed as “high FA values in both assays as well as in the control sample”.
Regarding `Nc1c(S(=O)(=O)O)cc(Nc2ccc(Nc3nc(Cl)nc(Nc4cccc(S(=O)(=O)O)c4)n3)c(S(=O)(=O)O)c2)c2c1C(=O)c1ccccc1C2=O` [LI4, Reactive Blue 2], 1.5 ± 0.28 µM corresponded to half-maximal inhibition on human N7-MTase RNMT-RAM (IC50). Besides, in “in vitro”, the CC50 is 52.6 ± 10.2 µM. Further, the figures for the concentration for a half-maximal effect (EC50) in the data set on SARS-CoV-2 and in the data set with SARS-CoV-2 (listed as Reactive Blue 2) were 16.3 ± 0.3 µM and below 50 µM, respectively.
`O=C1c2c(O)ccc(O)c2C(=O)c2c(NCCNCCO)ccc(NCCNCCO)c21` [LI5, Mitoxantrone 2HCl] showed an IC50 at human N7-MTase RNMT-RAM of 3.92 ± 0.21 µM. Further, the CC50 in “in vitro” was below 0.04 µM. The “inhibition of m7Gp3A formation (RP HPLC)” value against nsp14 N7-MTase was “lower potency”. Moreover, the “CC50/EC50 Selectivity index” value with SARS-CoV-2 (Huh 7 cells) is reported as “not active”. Also, at nsp14, the “FA values in both binding assays and control sample” value is “high FA values in both assays as well as in the control sample”.
`N.N.N.N.N.N.N.N.N.N.N.N.N.N.[Cl-].[Cl-].[Cl-].[Cl-].[Cl-].[Cl-].[O-2].[O-2].[Ru+3].[Ru+3].[Ru+4]` [LI6, Ruthenium red]: the “inhibition of m7Gp3A formation (RP HPLC)” value against nsp14 N7-MTase is recorded as “lower potency”.
On human N7-MTase RNMT-RAM, `CC(C)N(CCC(=O)c1ccc2ccccc2c1)Cc1ccccc1` [LI7, ZM 39923 HCl] returned a half-maximal inhibitory concentration (IC50) of 15.9 ± 3.3 µM. In “in vitro”, this compound returned a CC50 of 12.2 ± 0.6 µM. In the data set with SARS-CoV-2 (Huh 7 cells), the “CC50/EC50 Selectivity index” value was “not active”. In addition, at nsp14, the “Inhibitor type (targeted binding site)” value is given as “bound by nsp14 within the nucleotide binding pocket”.
On human N7-MTase RNMT-RAM, `O=c1c(O)c(-c2cc(O)c(O)c(O)c2)oc2cc(O)cc(O)c12` [LI8, Myricetin] returned a half-inhibitory concentration (IC50) of 3.57 ± 0.36 µM. This compound also displayed a CC50 in the data set “in vitro” of 41.6 ± 7.1 µM.
With `COC(=O)c1c(NC(=O)c2cc3ccccc3o2)sc(C)c1C` [OI1, Methyl 2-[(1-benzofuran-2-ylcarbonyl)amino]-4,5-dimethylthiophene-3-carboxylate], at human N7-MTase RNMT-RAM, the IC50 is above 100 µM and the “IC50 Py-FLINT (RNMT-RAM)” value was “no human N7-MTase inhibition”. The compound also returned a CC50 in “in vitro” above 100 µM. For the same compound, the “CC50/EC50 Selectivity index” value in the data set on SARS-CoV-2 (Huh 7 cells) is “not active”. In addition, on nsp14, the “Inhibitor type (targeted binding site)” value is “bound by nsp14 within the nucleotide binding pocket”.
In the case of `Clc1cccc(/C=C/c2nn3c(-c4ccco4)nnc3s2)c1` [OI2, (E)-6-(3-Chlorostyryl)-3-(furan-2-yl)-[1,2,4]triazolo[3,4-b][1,3,4]thiadiazole], at human N7-MTase RNMT-RAM, the IC50 is above 100 µM and the “IC50 Py-FLINT (RNMT-RAM)” value is listed as “no human N7-MTase inhibition”. The compound further returned a CC50 in “in vitro” of 71.3 ± 5.9 µM. Also, the “CC50/EC50 Selectivity index” value with SARS-CoV-2 (Huh 7 cells) is listed as “not active”. The “Inhibitor type (targeted binding site)” value at nsp14 was “bound by nsp14 within the nucleotide binding pocket”.
With `Nc1ncnc2c1ncn2[C@@H]1O[C@H](C[C@@H](N)CC[C@H](N)C(=O)O)[C@@H](O)[C@H]1O` [Sinefungin], at human N7-MTase RNMT-RAM, the IC50 turned out to be 0.22 ± 0.02 µM. Besides, the CC50 in “in vitro” is above 100 µM.
On to `O=c1cc(-c2ccccc2)oc2cc(O)c(O)c(O)c12` [baicalein], for which, in data set [1] (50 μM library compound), the “inhibition of reaction progress in library screening” value is reported as “did not observe such activity”.
